From ChEMBL document CHEMBL4138296, “Nonacidic Chemotype Possessing N-Acylated Piperidine Moiety as Potent Farnesoid X Receptor (FXR) Antagonists” (ACS Med Chem Lett, 2018)
The source made the active and inactive calls. The calls are words filed in the database; no cut-off is given here.

How the values were obtained:
Hep 3B2 = experiment: Cytotoxicity against human Hep3B cells assessed as reduction in cell viability by MTT assay; format: functional, cell-based
[1] = molecular target: T1, Peroxisome proliferator-activated receptor delta (Homo sapiens) (UniProt Q03181); experiment: Antagonist activity at PPARdelta (unknown origin) assessed as inhibition of GW501516-induced response at 1 uM by luciferase reporter gene assay
T1 sequence (whole entry): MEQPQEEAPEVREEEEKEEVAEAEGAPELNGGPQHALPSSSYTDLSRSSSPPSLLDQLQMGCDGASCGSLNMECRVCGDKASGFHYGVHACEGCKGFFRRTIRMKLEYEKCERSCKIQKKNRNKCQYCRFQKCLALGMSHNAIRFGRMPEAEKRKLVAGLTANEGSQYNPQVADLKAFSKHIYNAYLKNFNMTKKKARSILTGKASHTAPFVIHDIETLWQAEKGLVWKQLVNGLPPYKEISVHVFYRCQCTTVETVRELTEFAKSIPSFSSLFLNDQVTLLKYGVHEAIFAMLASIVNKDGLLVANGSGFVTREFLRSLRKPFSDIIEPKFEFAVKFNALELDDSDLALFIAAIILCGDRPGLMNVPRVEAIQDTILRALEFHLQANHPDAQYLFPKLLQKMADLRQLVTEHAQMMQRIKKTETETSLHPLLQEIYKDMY

[2] = molecular target: T1, Peroxisome proliferator-activated receptor delta (Homo sapiens); experiment: Agonist activity at PPARdelta (unknown origin) at 1 uM by luciferase reporter gene assay
[3] = molecular target: T2, Oxysterols receptor LXR-alpha (Homo sapiens) (UniProt Q13133); experiment: Agonist activity at LXRalpha (unknown origin) at 1 uM by luciferase reporter gene assay
T2 sequence (whole entry): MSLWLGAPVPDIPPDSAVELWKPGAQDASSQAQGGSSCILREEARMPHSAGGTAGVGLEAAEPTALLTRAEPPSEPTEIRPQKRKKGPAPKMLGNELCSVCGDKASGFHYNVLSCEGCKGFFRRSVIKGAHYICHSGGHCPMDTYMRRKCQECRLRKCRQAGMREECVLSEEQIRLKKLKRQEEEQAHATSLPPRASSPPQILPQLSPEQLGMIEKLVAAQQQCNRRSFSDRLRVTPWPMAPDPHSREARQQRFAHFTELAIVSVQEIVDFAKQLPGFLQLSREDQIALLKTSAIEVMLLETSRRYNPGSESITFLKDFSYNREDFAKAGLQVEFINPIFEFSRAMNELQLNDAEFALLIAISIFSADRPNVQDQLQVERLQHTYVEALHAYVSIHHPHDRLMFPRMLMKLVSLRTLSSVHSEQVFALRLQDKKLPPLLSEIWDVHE

[4] = molecular target: T3, Retinoic acid receptor alpha (Homo sapiens) (UniProt P10276); experiment: Agonist activity at RARalpha (unknown origin) at 1 uM by luciferase reporter gene assay
T3 sequence (whole entry): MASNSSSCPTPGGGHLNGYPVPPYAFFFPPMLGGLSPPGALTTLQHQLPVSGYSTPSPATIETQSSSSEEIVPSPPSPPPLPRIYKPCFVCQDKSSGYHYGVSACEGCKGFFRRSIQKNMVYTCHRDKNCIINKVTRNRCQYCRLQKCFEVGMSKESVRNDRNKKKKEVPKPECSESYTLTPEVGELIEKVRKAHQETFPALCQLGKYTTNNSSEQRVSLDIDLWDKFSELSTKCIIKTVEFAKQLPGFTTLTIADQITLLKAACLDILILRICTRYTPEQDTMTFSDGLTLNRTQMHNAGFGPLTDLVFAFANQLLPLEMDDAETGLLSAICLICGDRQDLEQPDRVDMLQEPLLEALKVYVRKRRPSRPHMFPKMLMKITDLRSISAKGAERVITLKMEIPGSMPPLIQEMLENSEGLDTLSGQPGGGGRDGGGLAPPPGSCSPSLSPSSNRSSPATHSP

Bile acid receptor = molecular target: T4, Bile acid receptor (Homo sapiens, UniProt Q96RI1); experiment: Antagonist activity at FXR in human HepG2 cells assessed as inhibition of CYP3A4 mRNA expression level at 0.02 to 2 uM after 48 hrs by RT-PCR analysis; format: ADME, cell-based; details: hepg2, 48 h
T4 sequence (Q96RI1 whole entry): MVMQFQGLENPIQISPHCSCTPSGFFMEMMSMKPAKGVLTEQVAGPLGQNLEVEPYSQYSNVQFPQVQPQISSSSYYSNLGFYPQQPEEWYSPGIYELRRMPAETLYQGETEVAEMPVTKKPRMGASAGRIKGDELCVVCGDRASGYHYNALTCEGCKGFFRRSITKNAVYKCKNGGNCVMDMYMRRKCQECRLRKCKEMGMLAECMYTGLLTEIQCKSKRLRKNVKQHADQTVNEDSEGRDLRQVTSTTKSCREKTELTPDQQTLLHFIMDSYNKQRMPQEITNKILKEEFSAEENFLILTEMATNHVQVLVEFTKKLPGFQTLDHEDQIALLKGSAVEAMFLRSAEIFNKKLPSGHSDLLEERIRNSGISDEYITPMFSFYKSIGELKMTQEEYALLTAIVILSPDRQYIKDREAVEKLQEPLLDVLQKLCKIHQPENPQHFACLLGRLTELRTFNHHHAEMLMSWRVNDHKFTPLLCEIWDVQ

[5] = molecular target: T5, G-protein coupled bile acid receptor 1 (Homo sapiens) (UniProt Q8TDU6); experiment: Antagonist activity at TGR5 (unknown origin) assessed as inhibition of lithocholic acid-induced response at 1 uM by luciferase reporter gene assay; format: functional
T5 sequence (whole entry): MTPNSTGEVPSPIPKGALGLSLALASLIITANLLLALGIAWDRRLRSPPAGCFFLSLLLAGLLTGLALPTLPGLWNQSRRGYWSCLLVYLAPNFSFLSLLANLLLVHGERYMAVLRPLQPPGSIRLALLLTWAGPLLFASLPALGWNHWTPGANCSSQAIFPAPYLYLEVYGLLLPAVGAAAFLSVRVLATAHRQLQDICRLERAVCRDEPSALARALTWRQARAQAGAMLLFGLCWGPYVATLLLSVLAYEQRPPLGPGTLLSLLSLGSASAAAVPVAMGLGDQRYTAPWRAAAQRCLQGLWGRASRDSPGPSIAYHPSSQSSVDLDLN

[6] = molecular target: T5, G-protein coupled bile acid receptor 1 (Homo sapiens); experiment: Agonist activity at TGR5 (unknown origin) at 1 uM by luciferase reporter gene assay; format: functional
3T3-L1 [7] = experiment: Cytotoxicity against mouse 3T3L1 cells assessed as reduction in cell viability measured up to 10 uM after 6 days by CCK-8 assay; format: cell-based; details: 3t3-l1, 144 h
3T3-L1 [8] = experiment: Antiadipogenic activity in mouse 3T3L1 cells assessed as inhibition of CDCA-induced triglyceride accumulation after 6 days; format: functional, cell-based

Cc1ccc2nc([C@H](CC3CCN(C(=O)C(C)C)CC3)N3C(=O)CN(c4ccc(Oc5ccccc5)cc4)C3=O)n(C)c2c1
IC50 (Hep 3B2): > 100 µM | inhibition [1]: inactive | Activity [2]: inactive | Activity [3]: inactive | Activity [4]: inactive | inhibition (INH) (Bile acid receptor): Not Active | inhibition [5]: inactive | Activity [6]: inactive | Activity (3T3-L1 [7]): Non-Toxic | inhibition (3T3-L1 [8]): Dose-dependent effect
